Structures can show the parent of a compound that is named as a salt.
Tested on: SB.msgc-1
Experiment: AC50 for growth inhibition (viability) (log10 M); higher = less potent
Conditions: SB.msgc-1 (sporadic gastric cancer)
Summary of the method: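 In 1536-well plates, each well held 500 patient-derived gastric cancer cells (hereditary or sporadic) in 5 μL medium. Compound in DMSO, 23 nL per well, was pinned in 11 threefold dilutions starting at a final 46 μM. Following 48 h of exposure, cells had CellTiter-Glo for 30 min at room temperature before ViewLux luminescence reading. Only high-quality curve classes from four-parameter fits of DMSO-normalised viability gave the log half-maximal activity concentration.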

Row | Compound | AC50 for growth inhibition (log10 M)
1 | COC1=CC=C2[C@H]3CC[C@]4(C)[C@H](CC[C@H]4[C@@H]3CCC2=C1)NCCCCCCN5C(=O)\C=C/C5=O | -4.73
2 | O=C(O)c1ccc(-c2c[nH]c3ncc(-c4ccccc4)cc23)cc1C1CCCC1 | -6.28
3 | O=C(O)CCC1CCC(c2cc(F)ccc2F)([S+](=O)([O-])c2ccc(Cl)cc2)CC1 (stereo not drawn) [MK-0752] | -4.98
4 | CN(C)CCOc1ccc(-c2nc(-c3ccncc3)c(-c3ccc4c(c3)CC/C4=N\O)[nH]2)cc1 | -4.68
5 | CC(C)(OCc1nn(Cc2ccccc2)c2ccccc12)C(=O)O [Bindarit] | -5.08
6 | C[C@@H](N)c1ccc(C(=O)Nc2ccnc3[nH]ccc23)cc1 | -4.78
7 | O=C/1\C=C(/OC(=C1)/C2=C3SC4=C(SC3=CC=C2)C=CC=C4)N5CCOCC5 [KU-0064] | -4.63
8 | CN(CC#C)C/C1=C/C2=CC=CC=C2OC3=CC=CC=C13 [Omigapil] | -4.63
9 | CCc1cccc(CC)c1NC(=O)N1Cc2[nH]nc(NC(=O)c3ccc(N4CCN(C)CC4)cc3)c2C1 | -4.63
10 | CC(C)(C)c1cnc(CSc2cnc(NC(=O)C3CCNCC3)s2)o1 [SNS-032] | -7.18
11 | O=C(/C=C/c1cccnc1)NCCCCC1CCN(C(=O)c2ccccc2)CC1 [Daporinad] | -6.08
12 | CC[C@H](/C=C/[C@@H](C)[C@H]1CC[C@H]2[C@@H]3CC=C4C[C@@H](O)CC[C@]4(C)[C@H]3CC[C@]12C)C(C)C [Stigmasterol] | -5.19
13 | COC(=O)c1ccc2c(c1)NC(=O)/C2=C(\Nc1ccc(N(C)C(=O)CN2CCN(C)CC2)cc1)c1ccccc1 [Vargatef] | -5.28
14 | O=C(C1CC1)N1CC[C@@H](Cn2c(-c3ccc(-c4ccc5occc5c4)cc3)nc3cnccc32)C1 | -4.73
15 | COc1ccc(CCC(=O)Nc2nc3ccc(Cl)cc3s2)cc1OC | -4.63
16 | O=c1cc(O)c(Cl)c[nH]1 [Gimeracil] | -4.68
17 | CC(=O)Oc1cc2c(s1)CCN(C(C(=O)C1CC1)c1ccccc1F)C2.Cl (stereo not drawn) [Prasugrel] | -6.08

Row | Compound | AC50 for growth inhibition (log10 M)
18 | COC(=O)Nc1nc2cc(C(=O)c3cccs3)ccc2[nH]1 [Nocodazole] | -7.98
19 | COc1cc(-c2nn(C3CCC(N4CCN(C(C)=O)CC4)CC3)c3ncnc(N)c23)ccc1NC(=O)c1cc2ccccc2n1C (stereo not drawn) | -5.28
20 | CCc1cc(/C(C)=N/OCc2ccc(C3CCCCC3)c(C(F)(F)F)c2)ccc1CN1CC(C(=O)O)C1 [BAF-312] | -4.73
21 | CC[C@@H]([C@H](C)O)n1ncn(-c2ccc(N3CCN(c4ccc(OCC5CO[C@@](Cn6cncn6)(c6ccc(F)cc6F)C5)cc4)CC3)cc2)c1=O (stereo partly drawn) [Posaconazole] | -4.73
22 | Cc1csc(NC(=O)c2sc3nc4c(c(C(F)(F)F)c3c2N)CCC4)n1 [Irestatin 9389] | -4.68
23 | CS[C@H]1SC[C@@H]2C(=O)N(C)[C@H](C(C)C)C(=O)OC[C@H](NC(=O)c3cnc4ccccc4n3)C(=O)N[C@H](C)C(=O)N(C)[C@H]1C(=O)N(C)[C@H](C(C)C)C(=O)OC[C@H](NC(=O)c1cnc3ccccc3n1)C(=O)N[C@H](C)C(=O)N2C [Echinomycin] | -8.33
24 | O=C1N\2CCC3=C([NH]C4=C3C=CC=C4)C2=N/C5=CC=CC=C15 [Rutaecarpine] | -4.78
25 | O=C(C[C@@H]1C/C=C\CCC(=O)O[C@H](c2ccccc2)CNC1=O)NCc1ccc(Cl)cc1 [Robotnikinin] | -5.43
26 | CCCCCNC(=N)N/N=C/c1c[nH]c2ccc(OC)cc12 [Tegaserod maleate] | -5.13
27 | COc1cc2c(cc1O)CCC1C2CC[C@@]2(C)C1CC[C@@H]2O (stereo partly drawn) [2-Methoxyestradiol] | -5.33
28 | O=C(O)C(=O)c1cn(Cc2ccccc2)c2ccc(-c3ccc(OC(F)(F)F)cc3)cc12 [Tiplasinin] | -5.13
29 | O=C(O)[C@@H](c1ccc(OCc2ccc3ccccc3n2)cc1)C1CCCC1 [Veliflapon] | -5.18
30 | COc1cc(/C=C/C(=O)CC(=O)/C=C/c2ccc(O)c(OC)c2)ccc1O [Curcumin] | -4.37
31 | CC(=O)[C@H]1CC[C@H]2[C@@H]3C/C=C4/C[C@@H](O)CC[C@]4(C)[C@H]3CC[C@]12C [Pregnenolone] | -4.88
32 | COCCCN1CCC(NC(=O)c2cc(Cl)c(N)c3c2OCC3)CC1 [Prucalopride] | -4.58
33 | C[C@H](Cc1ccc(O)c(O)c1)[C@@H](C)Cc1ccc(O)c(O)c1 [Masoprocol] | -4.83
